Several values for one entry are separate records, joined by “and”; a condition that tells them apart may be missing. Equal entries are not always repeated.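 Step 1: Grow cells in 96-well plates. Step 2: Expose to compound for 48 hours at 5 concentrations. Step 3: Interpolate endpoints linearly; if unreached, use highest concentration. The concentration for 50% growth inhibition is given as GI50. Definition used: TGI = concentration required for complete inhibition of growth.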 A value given as a limit tells only on which side of the number the result lay.

The record followed here is PubChem BioAssay (NCI).

Some test systems named below: NCI-H460 lung; MCF7 breast; SF-295 CNS; RPMI-8226 leukemia; SW-620 colon; OVCAR-5 ovarian; ACHN renal; NCI-H23 lung; T-47D breast; IGROV1 ovarian.
What all share (assay): NCI anticancer screen, dose series, 48 h

Consider `N[C@@H]1CCCN(c2c(/C=C3\SC(=O)NC3=O)cccc2-c2ccccc2)C1`, for which the GI50 with NCI-H460 lung was 16.9 µM; in the experiment with MCF7 breast, 11.4 µM; in the experiment with SF-295 CNS, 3.57 µM; with RPMI-8226 leukemia, 2.23 µM; in the experiment on SW-620 colon, 12.8 µM; in the experiment with OVCAR-5 ovarian, 10.5 µM. The GI50 in the experiment on ACHN renal was 14.4 µM; in the experiment with NCI-H23 lung, 15.3 µM; in the experiment with T-47D breast it was 11.2 µM; in the experiment on IGROV1 ovarian it was 17.2 µM. Besides, the TGI stood at 35.3 µM in the experiment with NCI-H460 lung; 27.1 µM with MCF7 breast; 15.9 µM in the experiment on SF-295 CNS; 21.6 µM in the experiment with RPMI-8226 leukemia; 28.3 µM in the experiment with SW-620 colon; 23.4 µM in the experiment on OVCAR-5 ovarian. Further, the TGI is 29.5 µM in the experiment with ACHN renal, 33.1 µM in the experiment with NCI-H23 lung, 28.8 µM in the experiment on T-47D breast and 35.1 µM with IGROV1 ovarian.
`CC/C(C)=C1\OC(=O)C(C)C(O)C(Cc2cccnc2)NC(=O)C(NC(=O)c2ncccc2O)C(C)OC1=O` (stereo unspecified): the TGI in the experiment with NCI-H460 lung, in the experiment with MCF7 breast, in the experiment with SF-295 CNS, with RPMI-8226 leukemia, in the experiment with SW-620 colon and with OVCAR-5 ovarian was over 100 µM in each case. The TGI in the experiment with ACHN renal, in the experiment with NCI-H23 lung, with T-47D breast and in the experiment on IGROV1 ovarian was over 100 µM in each case.
`Nc1nc(N)c2nc(CNc3ccc(C(=O)NC(CCCNC(=O)c4ccccc4C(=O)O)C(=O)O)cc3)cnc2n1` (stereo unspecified): the GI50 was 0.00045 µM in the experiment with NCI-H460 lung; 0.00363 µM in the experiment on MCF7 breast; < 0.01 µM and 0.00332 µM in the experiment on SF-295 CNS; 0.000866 µM in the experiment on SW-620 colon; 0.00196 µM with OVCAR-5 ovarian; 0.00181 µM with ACHN renal. In addition, the GI50 in the experiment on NCI-H23 lung is 0.00401 µM; in the experiment with IGROV1 ovarian, 0.0249 µM. Further, the TGI with NCI-H460 lung, in the experiment with MCF7 breast, in the experiment with RPMI-8226 leukemia, in the experiment with SW-620 colon, in the experiment on OVCAR-5 ovarian and in the experiment on ACHN renal was over 100 µM each time. The TGI in the experiment on NCI-H23 lung, in the experiment on T-47D breast and in the experiment on IGROV1 ovarian was over 100 µM throughout.
For the molecule `COc1cccc2[nH]c(-c3ccccn3)nc12`, the TGI in the experiment on NCI-H460 lung, in the experiment on MCF7 breast, in the experiment with SF-295 CNS, in the experiment on RPMI-8226 leukemia, in the experiment on SW-620 colon and with OVCAR-5 ovarian was over 100 µM each time. For the same molecule, the TGI in the experiment with ACHN renal, in the experiment with NCI-H23 lung, in the experiment with T-47D breast and with IGROV1 ovarian was over 100 µM each time.
As for `CCCCn1sc(=O)n(Cc2ccc(CNC(=O)OCc3ccc4c(Br)cc(Br)c(O)c4n3)cc2)c1=O`, the GI50 is 0.395 µM in the experiment on NCI-H460 lung; 0.369 µM in the experiment with MCF7 breast; 4.09 µM with SF-295 CNS; 0.501 µM in the experiment on RPMI-8226 leukemia; 0.42 µM with SW-620 colon; over 24.7 µM in the experiment with OVCAR-5 ovarian. Further, the GI50 with ACHN renal was 0.505 µM; in the experiment on NCI-H23 lung, 0.7 µM; in the experiment on T-47D breast it was over 100 µM; in the experiment with IGROV1 ovarian it was 0.531 µM. Also, the TGI in the experiment on NCI-H460 lung is over 100 µM; with MCF7 breast, over 100 µM; in the experiment with SF-295 CNS, over 24.5 µM; in the experiment with RPMI-8226 leukemia, over 100 µM; in the experiment with SW-620 colon, over 100 µM; in the experiment on OVCAR-5 ovarian, over 100 µM. Besides, the TGI in the experiment with ACHN renal, with NCI-H23 lung, with T-47D breast and in the experiment on IGROV1 ovarian was over 100 µM each time.
`Nc1nnc(Cn2c(-c3ccccc3)nc3ccc(Br)cc3c2=O)s1`: the GI50 was over 100 µM with NCI-H460 lung; over 100 µM in the experiment with MCF7 breast; 26.2 µM with SF-295 CNS; 18.1 µM in the experiment with RPMI-8226 leukemia; 36.1 µM in the experiment with SW-620 colon; over 100 µM in the experiment with OVCAR-5 ovarian. The GI50 in the experiment on ACHN renal is 39 µM; in the experiment with NCI-H23 lung, 40.8 µM; with T-47D breast it was over 100 µM; in the experiment on IGROV1 ovarian, 18.3 µM. Moreover, the TGI with NCI-H460 lung was over 100 µM; in the experiment on MCF7 breast it was over 100 µM; in the experiment on SF-295 CNS, over 100 µM; with RPMI-8226 leukemia, 62.8 µM; in the experiment with SW-620 colon, over 100 µM; in the experiment on OVCAR-5 ovarian it was over 100 µM. Moreover, the TGI with ACHN renal, in the experiment on NCI-H23 lung, with T-47D breast and in the experiment on IGROV1 ovarian was over 100 µM in each case.
With `COc1ccc(C(=O)c2cc3c(N)c(C(=O)Nc4cccc(Cl)c4C)sc3nc2C)cc1`, the GI50 in the experiment on NCI-H460 lung was 0.0917 µM; in the experiment on MCF7 breast it was 0.0932 µM; in the experiment with SF-295 CNS, 0.0833 µM; in the experiment on RPMI-8226 leukemia, 0.0918 µM; in the experiment on SW-620 colon, 0.105 µM; in the experiment with OVCAR-5 ovarian it was 0.266 µM. Further, the GI50 is 0.202 µM in the experiment on ACHN renal, 0.173 µM with NCI-H23 lung, 0.153 µM in the experiment on T-47D breast and 0.145 µM in the experiment with IGROV1 ovarian. Further, the TGI in the experiment on NCI-H460 lung, in the experiment on MCF7 breast, with SF-295 CNS, in the experiment with SW-620 colon, with OVCAR-5 ovarian and in the experiment on ACHN renal was over 25 µM throughout. In addition, the TGI in the experiment on NCI-H23 lung, in the experiment with T-47D breast and with IGROV1 ovarian was over 25 µM throughout.
